# Values of other authors, collected in US11466400B2, “Finish composition” (Hexcel Corporation, priority 2018, dated 2022).
compound,measurement,value
O=C(O)CNCC(=O)O [Iminodiacetic acid],pKa,1.873
